Biological target: T1, FLuc-C-HiBiT (Photinus pyralis, UniProt P08659)
T1 construct: firefly luciferase with C-terminal HiBiT tag, E. coli expressed
Experiment: biochemical
Details: enzyme activity, 10 uM ATP; read-out: IC50 or SDR50 (mM) / FLuc E

T1 sequence (P08659 whole entry, looked up): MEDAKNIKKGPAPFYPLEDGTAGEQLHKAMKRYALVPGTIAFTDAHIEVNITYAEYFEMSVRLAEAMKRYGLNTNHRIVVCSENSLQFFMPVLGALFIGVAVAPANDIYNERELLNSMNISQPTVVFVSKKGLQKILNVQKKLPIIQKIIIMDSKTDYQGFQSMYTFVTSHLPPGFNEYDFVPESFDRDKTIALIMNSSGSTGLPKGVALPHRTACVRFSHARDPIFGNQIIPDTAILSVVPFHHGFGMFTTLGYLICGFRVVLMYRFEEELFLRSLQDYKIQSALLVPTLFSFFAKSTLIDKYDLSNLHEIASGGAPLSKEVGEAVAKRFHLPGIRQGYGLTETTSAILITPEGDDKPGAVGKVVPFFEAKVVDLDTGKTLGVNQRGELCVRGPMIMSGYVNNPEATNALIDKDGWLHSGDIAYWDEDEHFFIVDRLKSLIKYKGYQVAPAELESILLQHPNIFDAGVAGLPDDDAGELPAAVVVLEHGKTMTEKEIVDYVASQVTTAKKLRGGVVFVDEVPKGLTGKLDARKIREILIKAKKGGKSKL

Row | Structure (SMILES) | IC50
1 | COc1ccc(NC(=O)N2CCc3c(C(=O)Nc4ccc5c(c4)OCO5)cccc32)cc1 [NCGC00430172-01] | 0.000881 mM
2 | O=C(Nc1ccc2c(c1)OCO2)c1cccc2c1CCN2C(=O)Nc1ccc(F)cc1 [NCGC00430184-01] | 0.000197 mM
3 | CC(=O)N1CCc2ccc(C(=O)NC3CCCCCC3)cc21 [NCGC00430256-01] | 0.00624 mM
4 | CCC(=O)N1CCc2ccc(C(=O)NC3CCCCC3)cc21 [NCGC00430262-01] | 0.0111 mM
5 | Cc1nc(CN2CCOc3c(O)cc(-c4nc5ccccc5s4)cc3C2)no1 [NCGC00430265-01] | > 0.03 mM
6 | COc1ccc(C(=O)N2CCc3ccc(C(=O)Nc4ccc5c(c4)OCCO5)cc32)cc1 [NCGC00430278-01] | 0.00556 mM
7 | COc1cccc(CN2CCc3c(cc(C(=O)Nc4cc(C)ccc4OC)n3C)C2)c1 [NCGC00430592-01] | > 0.03 mM
8 | COc1ccc2cc(C3CN(C(=O)CCc4n[nH]c(C)n4)CCO3)ccc2c1 (centres unmarked) [NCGC00430617-01] | 0.00989 mM
9 | COc1ccc2cc(C3CN(C(=O)CNC(=O)C(C)C)CCO3)ccc2c1 (centres unmarked) [NCGC00430625-01] | 0.0124 mM
10 | Cn1c(C(=O)Nc2ccc3c(c2)OCO3)cc2c1CCN(Cc1cccc(F)c1)C2 [NCGC00430636-01] | > 0.03 mM
11 | Cc1ccc(NC(=O)Nc2ccccc2)c(=O)n1CC(=O)NCC1CCCO1 (centres unmarked) [NCGC00430764-01] | 0.0111 mM
12 | CCN1CCN(C(=O)Cn2c(C)ccc(NC(=O)Nc3ccc(C)cc3)c2=O)CC1 [NCGC00430774-01] | 0.00495 mM
13 | COc1ccccc1NC(=O)Cn1c(C)ccc(NC(=O)Nc2ccc(C)cc2)c1=O [NCGC00430778-01] | 0.0007 mM
14 | CCC(C)NC(=O)Cn1c(C)ccc(NC(=O)Nc2ccc(C)cc2)c1=O (centres unmarked) [NCGC00430780-01] | 0.00124 mM
15 | Cc1ccc(NC(=O)Nc2ccc(C)n(CC(=O)NC(C)(C)C)c2=O)cc1 [NCGC00430790-01] | 0.00394 mM
16 | Cc1ccc(NC(=O)Nc2ccc(C)n(CC(=O)NC3CCCC3)c2=O)cc1 [NCGC00430792-01] | 0.0007 mM
17 | Cc1ccc(NC(=O)Nc2ccc(C)n(CC(=O)NCCC(C)C)c2=O)cc1 [NCGC00430794-01] | 0.00111 mM
18 | Cc1ccc(NC(=O)Nc2ccc(C)n(CC(=O)NCC(C)C)c2=O)cc1 [NCGC00430796-01] | 0.00111 mM
19 | Cc1ccc(NC(=O)Nc2ccc(C)n(CC(=O)N3CCC(C)CC3)c2=O)cc1 [NCGC00430800-01] | 0.00394 mM
20 | Cc1ccc(NC(=O)Nc2ccc(C)n(CC(=O)NC(C)c3cccnc3)c2=O)cc1 (centres unmarked) [NCGC00430804-01] | 0.00157 mM
21 | Cc1ccc(NC(=O)Nc2ccc(C)n(CC(=O)NCCN3CCCC3)c2=O)cc1 [NCGC00430806-01] | 0.0111 mM
22 | CC(C)n1cc(-c2cc(C(=O)N3CCC(C)(C)C3)c3ccc(F)cc3n2)cn1 [NCGC00430819-01] | 0.00495 mM

Row | Structure (SMILES) | IC50
23 | CCCNC(=O)Cn1c(C)ccc(NC(=O)Nc2ccc(OC)cc2)c1=O [NCGC00430826-01] | 0.00624 mM
24 | COc1ccc(NC(=O)Nc2ccc(C)n(CC(=O)N3CCCCCC3)c2=O)cc1 [NCGC00430834-01] | 0.00989 mM
25 | COc1ccc(NC(=O)Nc2ccc(C)n(CC(=O)NCC(C)C)c2=O)cc1 [NCGC00430836-01] | 0.00351 mM
26 | COc1ccc(NC(=O)Nc2ccc(C)n(CC(=O)N3CCCC(C)C3)c2=O)cc1 (centres unmarked) [NCGC00430838-01] | 0.00785 mM
27 | COc1ccc2cc(C3CN(C(=O)Cc4ccc(O)cc4)CCO3)ccc2c1 (centres unmarked) [NCGC00430869-01] | 0.00989 mM
28 | CCn1ncc(NC(=O)Cn2ncc3cc(-c4ccc(C)cc4F)ccc32)n1 [NCGC00430893-01] | 0.0124 mM
29 | CCN(CC)C(=O)N1CCOC(c2ccc3cc(OC)ccc3c2)C1 (centres unmarked) [NCGC00431059-01] | 0.00556 mM
30 | O=C(c1n[nH]cc1Cl)N1CCOC(Cc2cccc(C(F)(F)F)c2)C1 (centres unmarked) [NCGC00431816-01] | > 0.03 mM
31 | CC(C)(C)n1cc(-c2cc(C(=O)N3C[C@H]4CC[C@H]3C4)c3ccccc3n2)cn1 [NCGC00432050-01] | 0.007 mM
32 | COc1ccc(-n2cc(C3=CCN(CCN4CCOCC4)CC3)cn2)cc1 [NCGC00432106-01] | 0.00989 mM
33 | Nc1ccc(C(=O)N2CCCn3nc(C(=O)Nc4ccccc4)cc3C2)cn1 [NCGC00432306-01] | 0.0111 mM
34 | COc1cc(NC(=O)c2ccc(-c3ncn[nH]3)cc2)ccc1NC(=O)C(C)(C)C [NCGC00432557-01] | 0.0124 mM
35 | O=C(O)C1(CCc2ccccc2)CCCN(c2ncnc3[nH]cnc23)C1 (centres unmarked) [NCGC00432626-01] | > 0.03 mM
36 | CCn1cc(-c2ccc(F)cc2)cc1C(=O)O [NCGC00432651-01] | > 0.03 mM
37 | CCn1cc(-c2ccc(Cl)cc2)cc1C(=O)O [NCGC00432653-01] | > 0.03 mM
38 | CCn1cc(-c2ccc(C)cc2)cc1C(=O)O [NCGC00432661-01] | > 0.03 mM
39 | Cn1cc(-c2ccc(Cl)cc2)cc1C(=O)O [NCGC00432667-01] | > 0.03 mM
40 | Cc1ccc(-c2cc(C(=O)O)n(C)c2)cc1 [NCGC00432669-01] | 0.00989 mM
41 | CCn1cc(-c2ccc(OC)cc2)cc1C(=O)O [NCGC00432677-01] | 0.014 mM
42 | O=C(O)c1ccc(-c2ccc(N3CCCCCC3)nc2)cc1 [NCGC00432679-01] | 0.00248 mM
43 | O=C(O)c1ccc(-c2nnc3ccc(NC(=O)C4CCC4)cn23)cc1 [NCGC00432681-01] | 0.0111 mM
44 | CN1CCN(c2ccc(-c3cccc(N)c3)nn2)CC1 [NCGC00432705-01] | 0.00624 mM

Row | Structure (SMILES) | IC50
45 | CCN1CCN(c2ccc(-c3cccc(N)c3)nn2)CC1 [NCGC00432707-01] | 0.00989 mM
46 | Nc1cccc(-c2ccc(N3CCCCC3)nn2)c1 [NCGC00432709-01] | 0.000556 mM
47 | Cc1ccc(N2CCN(c3nc(C(=O)O)cs3)CC2)cc1 [NCGC00432723-01] | 0.00197 mM
48 | COc1ccc(NC(=O)Nc2ccc(C)n(CC(=O)O)c2=O)cc1 [NCGC00432735-01] | 0.00989 mM
49 | COc1ccc2cc(C3CN(C(=O)c4cccc(CO)n4)CCO3)ccc2c1 (centres unmarked) [NCGC00432736-01] | 0.0111 mM
50 | Cc1ccc(Cn2cc(-c3ccncc3)cc2C(=O)O)cc1 [NCGC00432741-01] | > 0.03 mM
51 | O=C(O)C1CCc2nc(N3CCN(C(=O)C4CCC4)CC3)sc2C1 (centres unmarked) [NCGC00432759-01] | 0.00881 mM
52 | CCC(=O)N1CCN(c2nc3c(s2)CC(C(=O)O)CC3)CC1 (centres unmarked) [NCGC00432761-01] | 0.0111 mM
53 | CC1CCN(C(=O)c2cc3c(s2)CCC(C(=O)O)C3)CC1 (centres unmarked) [NCGC00432771-01] | 0.014 mM
54 | O=C(O)CCC1CCN(c2cc(NC3CC3)ncn2)CC1 [NCGC00432803-01] | 0.00313 mM
55 | CCCNc1cc(N2CCC(CCC(=O)O)CC2)ncn1 [NCGC00432805-01] | 0.00785 mM
56 | CCNc1cc(N2CCC(CCC(=O)O)CC2)ncn1 [NCGC00432807-01] | 0.00556 mM
57 | CCN(CC)c1cc(CCC(=O)O)ccn1 [NCGC00432823-01] | 0.0014 mM
58 | Cc1cc(NC(=O)c2ccc(CN3CC[C@H](O)C3)cc2)ccc1F [NCGC00432832-01] | 0.00197 mM
59 | O=C(Nc1cnc(-c2ccccc2)nc1)C1CCCCC1 [NCGC00432861-01] | 0.00197 mM
60 | O=C(Nc1cnc(-c2ccccc2)nc1)C1CCCC1 [NCGC00432867-01] | 0.00248 mM
61 | Cc1ccc(-c2ncc(NC(=O)c3ccccc3F)cn2)cc1 [NCGC00432887-01] | 0.00197 mM
62 | CCC(=O)Nc1cnc(-c2ccc(C)cc2)nc1 [NCGC00432895-01] | 0.00881 mM
63 | CCCC(=O)Nc1cnc(-c2ccc(C)cc2)nc1 [NCGC00432897-01] | 0.00351 mM
64 | O=C(Nc1cnc(-c2ccc(Cl)cc2)nc1)C1CCC1 [NCGC00432903-01] | 0.00124 mM
65 | Oc1cc(-c2nc3ccccc3s2)cc2c1OCCN(Cc1ncccn1)C2 [NCGC00432964-01] | > 0.03 mM
66 | COc1cc(C)ccc1OCc1cc(C(=O)NCc2n[nH]c3c2CCC3)no1 [NCGC00433000-01] | 0.0124 mM

Row | Structure (SMILES) | IC50
67 | CCN(CC1CCOCC1)C(=O)c1cccnc1SC/C=C/c1ccccc1 [NCGC00433298-01] | 0.0124 mM
68 | CCn1ncc(NC(=O)Cn2ncc3cc(-c4ccc(N(C)C)cc4)ccc32)n1 [NCGC00433406-01] | 0.000785 mM
69 | Cc1cncc(C(=O)N2CCOc3c(O)cc(-c4nc5ccccc5s4)cc3C2)c1 [NCGC00433624-01] | > 0.03 mM
70 | COC(=O)[C@@H]1C[C@H](NC(=O)c2ccc(Oc3ccccc3)cc2)CN1C [NCGC00433761-01] | 0.0157 mM
71 | O=C1C[C@H]2CC[C@@H](CN1)N2Cc1ccc(OCc2ccccc2)cc1 [NCGC00434033-01] | 0.014 mM
72 | Cc1cc(CNC(=O)C2CCCCn3nnnc32)c2[nH]c(-c3ccccc3)c(C)c2c1 (centres unmarked) [NCGC00434459-01] | 0.0111 mM
73 | CC(C)Cc1noc(-c2ccc(N3CCC(O)CC3)nc2)n1 [NCGC00434953-01] | 0.00556 mM
74 | COc1ccc2c(c1)C1(CCN(C(=O)Nc3ccc4c(c3)OCCO4)C1)C(=O)N2C (centres unmarked) [NCGC00435246-01] | 0.0111 mM
75 | CN1CCN(C[C@@H]2CN(C(=O)CCCc3ccccc3)C[C@@H]2CO)CC1 [NCGC00435815-01] | > 0.03 mM
76 | CC(C)(O)CCc1ccc(C(=O)NCCSc2ccccn2)cc1 [NCGC00435911-01] | 0.0176 mM
77 | Cc1ncc(C(=O)NCc2ccc3[nH]c(-c4ccccc4F)c(C)c3c2)c(C)n1 [NCGC00435925-01] | 0.00785 mM
78 | CCCc1ccc2oc(C(=O)NCCc3nncn3CC)c(C)c2c1 [NCGC00436423-01] | 0.0124 mM
79 | Cc1ccc2cc(CN3CCN(CC(N)=O)CC3)c(-c3cccs3)nc2c1 [NCGC00436639-01] | 0.0124 mM
80 | c1ccc(CNc2cc(-c3cc(N4CCCCC4)ncn3)c3cc[nH]c3n2)nc1 [NCGC00436665-01] | 0.00989 mM
81 | Cc1ncc(CC(=O)NCc2ccc3[nH]c(-c4ccccc4F)c(C)c3c2)c(=O)[nH]1 [NCGC00436691-01] | 0.0124 mM
82 | COc1ccccc1OC1(C(=O)O)CCN(c2ncnc3[nH]cnc23)CC1 [NCGC00436727-01] | > 0.03 mM
83 | CN(C)c1cccc(C(=O)NC2CCN(c3cc(-c4ccc(Cl)cc4)n[nH]3)CC2)c1 [NCGC00437038-01] | 0.00624 mM
84 | Cc1c(-c2ccccc2F)[nH]c2ccc(CNC(=O)CCc3cc(O)no3)cc12 [NCGC00437347-01] | 0.00989 mM
85 | COc1ccc(C(=O)NC2CCCN(c3cc(-c4ccc(Cl)cc4)n[nH]3)C2)cc1OC (centres unmarked) [NCGC00437414-01] | 0.00624 mM
86 | O=C(NC1CCCN(c2cc(-c3ccc(Cl)cc3)n[nH]2)C1)c1ccc2ncccc2c1 (centres unmarked) [NCGC00437446-01] | 0.00495 mM

From paper PMC12064818, “A general assay platform to study protein pharmacology using ligand-dependent structural dynamics” (Nature Communications, 2025)
